Test results reported in patent US20250314586A1, “SYSTEMS AND METHODS FOR HIGH THROUGHPUT SINGLE MOLECULE TRACKING IN LIVING CELLS” (EIKON THERAPEUTICS, INC., priority 2022, published 2025).
Entries after “also recorded” stand apart in the source; their conditions may differ. Read-outs that look alike come from different tables or passages of the source.

Tests used:
Estrogen Receptor (ER) [1] = molecular target: T1, Estrogen Receptor (ER) (Homo sapiens, UniProt P03372); assay: htSMT of Halo-ER in U2OS cells (fbound, Dfree); type: cell-based; conditions: for effect of pathway inhibitors on ER fbound / ER movement: retest and dose titration of pathway inhibitors
T1 construct: expressed in transfected cells; host or cells: U2OS
T1 sequence (P03372 1-595): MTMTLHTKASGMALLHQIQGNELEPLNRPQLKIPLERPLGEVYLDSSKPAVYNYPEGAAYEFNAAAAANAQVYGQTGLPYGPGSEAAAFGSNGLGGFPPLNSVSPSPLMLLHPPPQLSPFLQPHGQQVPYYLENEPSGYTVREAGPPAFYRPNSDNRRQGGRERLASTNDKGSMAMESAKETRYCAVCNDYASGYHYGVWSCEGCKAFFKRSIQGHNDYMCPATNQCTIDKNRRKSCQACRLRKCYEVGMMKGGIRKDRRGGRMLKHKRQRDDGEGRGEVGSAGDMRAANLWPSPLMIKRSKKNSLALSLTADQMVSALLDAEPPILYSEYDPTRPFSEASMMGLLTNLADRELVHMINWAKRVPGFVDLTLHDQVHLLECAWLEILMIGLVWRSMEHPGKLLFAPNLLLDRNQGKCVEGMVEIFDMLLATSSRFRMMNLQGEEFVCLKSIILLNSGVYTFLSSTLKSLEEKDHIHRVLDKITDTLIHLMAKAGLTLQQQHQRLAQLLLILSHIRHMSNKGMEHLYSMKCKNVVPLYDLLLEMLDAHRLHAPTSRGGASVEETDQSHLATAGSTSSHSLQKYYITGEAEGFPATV

ER = ER (Homo sapiens, UniProt P03372); assay: Western blot of ER after compound treatment; type: cell-based; conditions: 100 nM fulvestrant, 24 hours; MCF7, T47d, U2OS Halo-ER
Experimental: Cells were grown in the same conditions as described previously. […] Cells are lysed in 200 μL 1× Cell Lysis Buffer (catalogue number 9803, Cell Signaling). Protein lysate concentration is then determined using BCA protein assay kit (Catalog number 23225, Pierce™ BCA Protein Assay Kit) following manufacturer instructions. Capillary Western Immunoassay were performed using Jess Protein Simple following manufacturer's instruction (protein simple, USA). Levels of αER (1:100, RM-9101) were normalized to loading control β-tubulin (1:100, NC0244815 LI-COR 92642213, Thermo Fisher). The peaks were analyzed with the Compass software (Protein Simple, USA).

[2] = molecular target: T2, glucocorticoid receptor (GR) (Homo sapiens, UniProt P04150); assay: htSMT of Halo-GR in U2OS cells; type: cell-based; conditions: 1 μM antagonist, singly or co-administered with cognate agonist
T2 construct: Because U2OS cells express GR endogenously, HaloTag was inserted right before the stop codon of endogenous NR3C1; endogenous in cells; host or cells: U2OS (CRISPR/Cas9 knock-in at the NR3C1 locus)
T2 sequence (P04150 1-777): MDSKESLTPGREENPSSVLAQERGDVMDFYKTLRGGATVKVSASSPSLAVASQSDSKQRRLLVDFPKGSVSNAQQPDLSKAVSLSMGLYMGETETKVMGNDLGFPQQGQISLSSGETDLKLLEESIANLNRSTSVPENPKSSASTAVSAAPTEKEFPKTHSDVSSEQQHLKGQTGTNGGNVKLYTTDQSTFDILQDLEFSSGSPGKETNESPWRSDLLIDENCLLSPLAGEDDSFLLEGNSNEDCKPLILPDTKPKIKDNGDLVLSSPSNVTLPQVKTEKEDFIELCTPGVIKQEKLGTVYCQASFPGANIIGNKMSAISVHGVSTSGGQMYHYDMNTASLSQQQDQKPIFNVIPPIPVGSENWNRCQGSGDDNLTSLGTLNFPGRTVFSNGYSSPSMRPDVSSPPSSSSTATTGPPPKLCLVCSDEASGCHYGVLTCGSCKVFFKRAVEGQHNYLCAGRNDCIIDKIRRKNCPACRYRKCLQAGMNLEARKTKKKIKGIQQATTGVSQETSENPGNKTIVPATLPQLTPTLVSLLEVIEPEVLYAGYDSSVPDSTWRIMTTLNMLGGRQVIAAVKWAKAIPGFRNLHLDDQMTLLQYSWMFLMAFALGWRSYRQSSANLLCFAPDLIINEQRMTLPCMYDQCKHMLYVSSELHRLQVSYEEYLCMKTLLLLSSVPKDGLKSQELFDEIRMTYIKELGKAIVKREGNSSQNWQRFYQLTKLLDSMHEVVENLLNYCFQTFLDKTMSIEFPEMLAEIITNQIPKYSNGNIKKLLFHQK
From the text: Where appropriate, compounds were serially diluted in an Echo Qualified 384-Well Low Dead Volume Source Microplate (0018544, Beckman Coulter) to generate dose-titration source material.

Estrogen Receptor (ER) [3] = molecular target: T1, Estrogen Receptor (ER); assay: residence time imaging of ER-Halo (track length survival); type: cell-based; conditions: 100 nM HSP90 inhibition, normalized to DMSO
Estrogen Receptor (ER) [4] = molecular target: T1, Estrogen Receptor (ER); assay: kinetic SMT (kSMT) of ER after compound addition; type: cell-based; conditions: 100 nM compound
androgen receptor (AR) = androgen receptor (AR) (Homo sapiens, UniProt P10275)
androgen receptor (AR), sequence (P10275 whole entry): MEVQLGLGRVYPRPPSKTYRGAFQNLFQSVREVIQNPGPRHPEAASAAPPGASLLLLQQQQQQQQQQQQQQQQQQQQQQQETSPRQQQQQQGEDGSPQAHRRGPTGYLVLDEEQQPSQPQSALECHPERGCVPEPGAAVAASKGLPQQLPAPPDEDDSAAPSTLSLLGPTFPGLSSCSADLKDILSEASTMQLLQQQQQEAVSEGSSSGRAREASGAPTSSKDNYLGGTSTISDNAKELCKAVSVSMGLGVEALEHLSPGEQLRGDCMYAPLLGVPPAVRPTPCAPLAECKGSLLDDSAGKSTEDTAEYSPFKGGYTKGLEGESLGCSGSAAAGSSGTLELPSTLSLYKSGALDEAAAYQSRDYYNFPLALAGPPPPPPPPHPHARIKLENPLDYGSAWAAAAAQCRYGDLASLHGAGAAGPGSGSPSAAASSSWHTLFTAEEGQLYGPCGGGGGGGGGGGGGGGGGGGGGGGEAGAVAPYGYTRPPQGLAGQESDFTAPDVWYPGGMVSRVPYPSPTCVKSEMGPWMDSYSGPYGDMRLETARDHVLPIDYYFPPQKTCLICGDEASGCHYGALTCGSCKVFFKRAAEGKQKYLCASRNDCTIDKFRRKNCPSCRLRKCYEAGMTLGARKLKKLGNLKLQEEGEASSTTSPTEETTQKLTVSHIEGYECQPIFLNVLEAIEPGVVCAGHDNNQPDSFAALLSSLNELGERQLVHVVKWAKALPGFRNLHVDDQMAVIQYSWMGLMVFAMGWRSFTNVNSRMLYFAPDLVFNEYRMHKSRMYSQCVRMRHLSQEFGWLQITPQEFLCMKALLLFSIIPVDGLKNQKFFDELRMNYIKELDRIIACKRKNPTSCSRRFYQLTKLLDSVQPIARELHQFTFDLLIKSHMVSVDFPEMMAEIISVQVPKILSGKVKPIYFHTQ

effect of pathway inhibitors on ER fbound / ER movement (Estrogen Receptor (ER) [1]) | t1/2 of increase in ER fbound (Estrogen Receptor (ER) [4]) [min] | time at which overall effect on ER fbound reaches plateau (Estrogen Receptor (ER) [4]) | Compound | decrease in total number of long binding events (Estrogen Receptor (ER) [3]) | other results
– | – | – | C[C@]12CC[C@@H]3c4ccc(O)cc4C[C@@H](CCCCCCCCC[S+]([O-])CCCC(F)(F)C(F)(F)F)[C@H]3[C@@H]1CC[C@@H]2O (some centres unmarked) [fulvestrant] | – | change in ER fbound, bioactive screen (Estrogen Receptor (ER) [1]; 1 μM compound versus DMSO, 5,067-molecule screen): caused an increase in fbound; also recorded: significantly increased fbound; ER degradation by western blot (ER): leads to the degradation of ER
– | – | – | CN(C)c1ccc(C(c2ccc(N(C)C)cc2)c2cc([N+](=O)[O-])ccc2Cl)cc1 [AL082D06] | – | effect on GR chromatin binding (fbound) [2]: decrease in chromatin binding
increase in fbound | 19.3 | plateau after an hour | CC(C)c1cc(-c2n[nH]c(=O)n2-c2ccc3c(ccn3C)c2)c(O)cc1O [ganetespib] | four | –
– | – | – | 4-hydroxytamoxifen | – | change in ER fbound, bioactive screen (Estrogen Receptor (ER) [1]): significantly increased fbound; maximal increase in ER fbound, compared with SERDs fulvestrant and GDC-0927 (Estrogen Receptor (ER) [1]): lower maximal increases in fbound
increase in fbound | 17.5 | plateau after an hour | COc1cccc(-c2cc(F)ccc2[C@H]2Cc3nc(N)nc(C)c3C(=O)N2)n1 [HSP990] | two | –
– | – | – | CC(O)c1cc(C(=O)N[C@@H](C)Cn2ccc(-c3ccc(C#N)c(Cl)c3)n2)[nH]n1 (some centres unmarked) [Darolutamide] | – | effect on AR chromatin binding (fbound) (androgen receptor (AR)): decrease in chromatin binding
